Measured values taken from patent US20070054886A1, “Ras antagonists for treating neurodegenerative disorders” (RAMOT AT TEL AVIV UNIVERSITY, LTD., priority 2003, published 2007).
Where “and” joins values, the source holds several entries; their conditions need not be identical. Equal entries are not always repeated.

Test system: Ras-GTP
Description: The study was approved by the Institutional Animal Care Committee of Hadassah Medical Center and the Hebrew University. Sixty male C57bl mice weighing 25 to 35 g were used. CHI was induced under ether anesthesia, as previously described (Chen et al., 1996) and modified (Yatsiv et al., 2002). Briefly, after induction of ether anesthesia the skull was exposed by a midline longitudinal incision. A tipped Teflon cone was placed in the mid-coronal plane above the left anterior frontal area, 1 mm lateral to the midline. A weight (74 g) was dropped onto the cone (from a height of 15 cm), resulting in a focal injury. After trauma, animals received supporting oxygenation with 100% O2 for no longer than 2 min and were then returned to their cages. Sham-injured mice were anesthetized and their skin was incised, but they were not subjected to CHI.
In the first experiment mice were sacrificed 10, 30, or 120 min after sham-injury or CHI to assess levels of Ras=GTP and phospho=ERK. In the second set of experiments, the animals received FTS (5 mg/kg i.p.) or vehicle, 1 hr after CHI and sham-injured mice received the vehicle (n=4 per group). The mice were sacrificed 2 or 24 hrs after CHI, their brains were removed, and cortical tissue samples adjacent or contra-lateral to the site of injury were homogenized in homogenization buffer containing protease inhibitors and 0.5% Triton X100 as described (Haklai et al., 1998). Debris was removed by centrifugation and protein in the extract was determined with the aid of the Bio-Rad protein assay (Bio-Rad Laboratories, GmbH). Total Ras protein was determined by Western immunoblotting of 30 μg of protein with 1:2500 pan-Ras Ab (Oncogene Research Products, followed by 1:7500 peroxidase goat anti-mouse IgG (Haklai et al., 1998). For determination of GTP-bound Ras in protein samples (1 mg), Ras-GTP was pulled down by glutathione-S-transferase fused to the Ras-binding domain of Raf (GST-RBD) which binds Ras-GTP only. The GST-RBD-Ras-GTP was pulled down with glutathione-agarose beads, and Ras was then determined by immunoblotting with pan-Ras Ab as described above, followed by enhanced chemiluminescence (ECL; Amersham Pharmacia Biotech, Piscataway, N.J., U.S.A) (Paz et al., 2000). The bands were quantified by densitometry with Image Master VDS-CL (Amersham Biotech) using TINA 2.0 software (Ray Tests).

[1] = 2 hrs after CHI, drug i.p. 1 hr after CHI, FTS 5 mg/kg, MK-801 0.5 mg/kg or 1 mg/kg, mean±SD

CC(C)=CCC/C(C)=C/CC/C(C)=C/CSc1ccccc1C(=O)O [FTS, farnesyl-thiosalicylic acid]
inhibition of the CHI-induced increase in Ras-GTP, left (contused) hemisphere [1]: 81.7±10.0% and 75.2±6.8% and 82% and 82±10% | inhibition of the CHI-induced increase in Ras-GTP, right (contra-lateral) hemisphere [1]: 70.4±12.0% and 67.2±7.1% and 70±12% | inhibition of Ras-GTP, range over both hemispheres (CHI mice, 2 hrs after CHI): 70-82% | effect on the total amount of Ras in the brain (FTS 5 mg/kg i.p. 1 hr after CHI): no effect | effect on Ras-GTP levels 24 hrs after CHI (FTS 5 mg/kg i.p. 1 hr after CHI, assessed 24 hrs after CHI): almost no effect
